Reference: patent publication US4680285A, “Treatment of malignant tumors with 2-(β-D-ribofuranosylthiazole-4-carboxamide related compounds” (priority 1985, dated 1987)
Entries after “also recorded” stand apart in the source; their conditions may differ.

Tests used:
[1] = tested on: type 1 herpes simplex virus; details: cited from earlier work
viruses = details: test viruses; cited from earlier work
L-1210 lymphoid leukemia [2] = assay: L-1210 lymphoid leukemia in vivo, mean survival, 30-day test (Example 9); parameters: species or system CD2 F1 male mice
Source text: For Example 9a and 9b, CD2 F1 male mice were used and challenged with L-1210 lymphoid leukemia. […] The test period was for thirty days. Test results are expressed as T/C as per Example 5.
In Example 9a, 24 control animals were used and six test animals at each drug dose level as is indicated below in table 9a. For both the control group and the drug test group, tumors were induced by IP inoculation of tumor seed cells on day zero followed by initiation of drug treatment on day one. For example 9a, water was used as the drug vehicle and for Examples 9b saline was used as the drug vehicle.
In both the control groups and the drug treated groups in Examples 9a and 9b, the test animals were inoculated on day zero IP with 10^6 seed cells of L-1210 lymphoid leukemia. For Example 9a, drug treatment was started on day one and compound 1 given once daily for nine days. Day five was utilized as the cutoff date for death attributable to toxicity of the drug. […] Efficacy of treatment was determined by comparing mean survival time of drug treated animals with mean survival time of the control animals and is expressed as percentage increase of treated animals/control animals (T/C) as per Example 5.
In this example, the drug treated animals were injected IP with dose levels noted in table 5a below. Six animals were treated at each dose level. No control animals survived beyond day ten with a mean death date of day 9.7.
In this example, drug treated animals were injected IP with the dose level noted in table 5b below. Ten animals were treated at each dose level. No control animals survived beyond day ten with a mean death date of day 9.0.

malignant tumors = assay: antitumor activity in vivo (general statements); details: summary statements
[3] = blood brain barrier crossing after IP injection (Example 12); format: in vivo, AKD2 F1 mice; details: inferred from activity on intracranial tumor after IP injection
Source text: (§1) For Example 12, compound 1 was given IP to a group of AKD2 F1 mice which were inflicted by intercranial inoculation with Lewis lung seed cells to establish brain tumors.
(§2) For this test, 32 control animals were used and no control animals survived beyond day eleven with a mean death data of day 9.6 for the controls. Water was used as the drug vehicle. For both the control group and the test group, tumors were induced on day zero with initiation of drug treatment on day one where compound 1 was given once daily for nine days. Test results are expressed as T/C as per example 5.

[4] = toxicity in tumor bearing animals; format: in vivo; details: dosages up to 2000 mg/Kg, toxicity day
Source text: In a host which has been diagnosed as being terminally ill with a malignant tumor excessive amounts beyond any toxicity range might be indicated if there is any probability of cure of the terminally ill host as is commonly practiced in current cancer chemotherapy.

virus = details: cited from earlier work
type 3 rhinovirus = details: cited from earlier work
[5] = tested on: type 3 parainfluenza virus; details: cited from earlier work
L-1210 lymphoid leukemia [6] = assay: L-1210 lymphoid leukemia in vivo screen, median survival (Example 5); parameters: species or system CD2 F1 male mice; details: for Percent Treated Animals/Control Animals: >125% positive; for Treated Group Survival Time (median): control 8.5
Source text: As an indicator of reproducible activity, compound 1 of the invention was screened against L-1210 lymphoid leukemia in vivo using CD2 F1 male mice as the testing species. The parameter of efficacy chosen was based upon the median survival time of animals treated with the drug vs. appropriate control group animals. Both drug treated animals and control group animals were inoculated IP with 10^5 seed cells of L-1210 lymphoid leukemia in Ascitic fluid.
One day after tumor inoculation, the drug group of animals was placed on a regimen of treatment of compound 1 at the dose levels as noted below, table 1. The drug treated group of animals was inoculated once daily for five days at the doses noted by IP injection of the test compound appropriately diluted with water.
Day six was chosen as an indication of drug toxicity. […] Death of drug treated animals after day six was, therefore, attributed to tumor deaths and not drug toxicity.
The median death day of the control group was day 8.5. […] A percent of drug treated animals/control animals greater than 125% is taken as positive drug activity.

[7] = tested on: Lewis lung seed cells (brain tumors); assay: Intracranially inoculated Lewis lung brain tumors in vivo, survival (Example 12); parameters: species or system AKD2 F1 mice; details: for Treated Group Survival Time: control 9.6
Source text: as §1, §2

NC(=O)c1csc([C@@H]2O[C@H](CO)[C@@H](O)[C@H]2O)n1 [Compound 1, 2-β-D-Ribofuranosylthiazole-4-Carboxamide]
in vitro antiviral activity [1]: only moderate | spectrum of in vitro antiviral activity, preliminary (viruses): marginal in vitro activity | Percent Treated Animals/Control Animals (L-1210 lymphoid leukemia [2]; Ex. 9a, water, 25 mg/Kg IP once daily x9): 131% | Treated Group Survival Time (mean) (L-1210 lymphoid leukemia [2]; Ex. 9a, water, 25 mg/Kg IP once daily x9, control 9.7): 12.8 days | Percent Treated Animals/Control Animals (L-1210 lymphoid leukemia [2]; Ex. 9a, water, 50 mg/Kg IP once daily x9): 136% | Treated Group Survival Time (mean) (L-1210 lymphoid leukemia [2]; Ex. 9a, water, 50 mg/Kg IP once daily x9, control 9.7): 13.2 days | Percent Treated Animals/Control Animals (L-1210 lymphoid leukemia [2]; Ex. 9a, water, 100 mg/Kg IP once daily x9): 144% | Treated Group Survival Time (mean) (L-1210 lymphoid leukemia [2]; Ex. 9a, water, 100 mg/Kg IP once daily x9, control 9.7): 14.0 days | Percent Treated Animals/Control Animals (L-1210 lymphoid leukemia [2]; Ex. 9a, water, 200 mg/Kg IP once daily x9): 157% | Treated Group Survival Time (mean) (L-1210 lymphoid leukemia [2]; Ex. 9a, water, 200 mg/Kg IP once daily x9, control 9.7): 15.3 days | Percent Treated Animals/Control Animals (L-1210 lymphoid leukemia [2]; Ex. 9a, water, 400 mg/Kg IP once daily x9): 192% | Treated Group Survival Time (mean) (L-1210 lymphoid leukemia [2]; Ex. 9a, water, 400 mg/Kg IP once daily x9, control 9.7): 18.7 days | Percent Treated Animals/Control Animals (L-1210 lymphoid leukemia [2]; Ex. 9b, saline, 100 mg/Kg IP): 183% | Treated Group Survival Time (mean) (L-1210 lymphoid leukemia [2]; Ex. 9b, saline, 100 mg/Kg IP, control 9.0): 16.5 days | Percent Treated Animals/Control Animals (L-1210 lymphoid leukemia [2]; Ex. 9b, saline, 200 mg/Kg IP): 182% | Treated Group Survival Time (mean) (L-1210 lymphoid leukemia [2]; Ex. 9b, saline, 200 mg/Kg IP, control 9.0): 16.4 days | Percent Treated Animals/Control Animals (L-1210 lymphoid leukemia [2]; Ex. 9b, saline, 400 mg/Kg IP): 224% | Treated Group Survival Time (mean) (L-1210 lymphoid leukemia [2]; Ex. 9b, saline, 400 mg/Kg IP, control 9.0): 20.2 days | Percent Treated Animals/Control Animals (L-1210 lymphoid leukemia [2]; Ex. 9b, saline, 600 mg/Kg IP): 230% | Treated Group Survival Time (mean) (L-1210 lymphoid leukemia [2]; Ex. 9b, saline, 600 mg/Kg IP, control 9.0): 20.7 days | Percent Treated Animals/Control Animals (L-1210 lymphoid leukemia [2]; Ex. 9b, saline, 800 mg/Kg IP): 171% | Treated Group Survival Time (mean) (L-1210 lymphoid leukemia [2]; Ex. 9b, saline, 800 mg/Kg IP, control 9.0): 15.4 days | activity against L-1210 lymphoid leukemia (L-1210 lymphoid leukemia [2]; Example 9): active against L-1210 lymphoid leukemia | mortality attributed to drug toxicity (L-1210 lymphoid leukemia [2]; Example 9b, day five cut-off): only one instance | DN 2 criteria of the National Cancer Institute (L-1210 lymphoid leukemia [2]; L-1210): successfully passed | antitumor activity (malignant tumors): effective in vivo antitumor agents | antitumor activity (malignant tumors; listed as 2-β-D-ribofuranosylthiazole-4-carboxamide): positive antitumor activity; also recorded: significant antitumor activity in vivo | crossing of the blood brain barrier [3]: successful crossing of the blood brain barrier; also recorded: successfully crosses the blood brain barrier | deaths attributed to toxicity [4]: no deaths of the animals were attributed to the toxicity | number of deaths of test animals vs placebo control animals (virus; in vivo antiviral tests): equal to or exceeded the number of deaths of the placebo control animals | in vivo antiviral activity (virus; in vivo): no useful in vivo antiviral activity; also recorded: negative | in vitro antiviral activity (type 3 rhinovirus): only moderate | in vitro antiviral activity [5]: only moderate | Percent Treated Animals/Control Animals (L-1210 lymphoid leukemia [6]; 12.5 mg/Kg IP once daily x5): 111% | Treated Group Survival Time (median) (L-1210 lymphoid leukemia [6]; 12.5 mg/Kg IP once daily x5): 9.5 days | Percent Treated Animals/Control Animals (L-1210 lymphoid leukemia [6]; 25 mg/Kg IP once daily x5): 120% | Treated Group Survival Time (median) (L-1210 lymphoid leukemia [6]; 25 mg/Kg IP once daily x5): 10.2 days | Percent Treated Animals/Control Animals (L-1210 lymphoid leukemia [6]; 50 mg/Kg IP once daily x5): 129% | Treated Group Survival Time (median) (L-1210 lymphoid leukemia [6]; 50 mg/Kg IP once daily x5): 11.0 days | Percent Treated Animals/Control Animals (L-1210 lymphoid leukemia [6]; 100 mg/Kg IP once daily x5): 149% | Treated Group Survival Time (median) (L-1210 lymphoid leukemia [6]; 100 mg/Kg IP once daily x5): 12.7 days | Percent Treated Animals/Control Animals (L-1210 lymphoid leukemia [6]; 200 mg/Kg IP once daily x5): 168% | Treated Group Survival Time (median) (L-1210 lymphoid leukemia [6]; 200 mg/Kg IP once daily x5): 14.3 days | survival through day six (drug toxicity) (L-1210 lymphoid leukemia [6]; 12.5-200 mg/Kg IP once daily x5): all drug treated animals survived through day six | activity in multiple dose assay (L-1210 lymphoid leukemia [6]; T/C >125% taken as positive): positive activity | median death day vs control (L-1210 lymphoid leukemia [6]; all levels of drug tested): longer at all levels of drug tested | median death day vs control (L-1210 lymphoid leukemia [6]; greater than 50 mg/Kg): significantly longer | Percent Treated Animals/Control Animals ([7]; 25.0 mg/Kg IP once daily x9): 172% | Treated Group Survival Time ([7]; 25.0 mg/Kg IP once daily x9): 16.6 days | Percent Treated Animals/Control Animals ([7]; 37.5 mg/Kg IP once daily x9): 166% | Treated Group Survival Time ([7]; 37.5 mg/Kg IP once daily x9): 16.0 days | Percent Treated Animals/Control Animals ([7]; 75 mg/Kg IP once daily x9): 185% | Treated Group Survival Time ([7]; 75 mg/Kg IP once daily x9): 19.0 days | Percent Treated Animals/Control Animals ([7]; 150 mg/Kg IP once daily x9): 197% | Treated Group Survival Time ([7]; 150 mg/Kg IP once daily x9): 20.5 days | Percent Treated Animals/Control Animals ([7]; 300 mg/Kg IP once daily x9): 213% | Treated Group Survival Time ([7]; 300 mg/Kg IP once daily x9): 20.5 days | Percent Treated Animals/Control Animals ([7]; 600 mg/Kg IP once daily x9): 211% | Treated Group Survival Time ([7]; 600 mg/Kg IP once daily x9): 20.3 days | Percent Treated Animals/Control Animals ([7]; 700 mg/Kg IP once daily x9): 211% | Treated Group Survival Time ([7]; 700 mg/Kg IP once daily x9): 20.3 days | Percent Treated Animals/Control Animals ([7]; 800 mg/Kg IP once daily x9): 221% | Treated Group Survival Time ([7]; 800 mg/Kg IP once daily x9): 21.3 days | effect on brain tumors ([7]; IP, once daily x9): reduction of the brain tumors
